Values quoted from earlier work as cited in US20110294894A1, “Pharmaceutical Composition for the Treatment of Solar Urticaria” (priority 2010, published 2011).

Tested on: severe antihistamine-resistant solar urticaria
Conditions: single case, Güzelbey et al., 2008

omalizumab
effectiveness in solar urticaria: effective
